PubChem BioAssay AID1963868 (Molecular Pharmacology Branch, DTP, NCI, 2024)
pIC50: −log10 of the molar value.

Tested on: KRAS PDC tumor spheroids (HUVEC+MSC), viability
Assay: Anticancer human tumor 254851-301-R-J1-PDC patient-derived colon carcinoma cell line growth inhibition [KRAS2]
Conditions: for viability, T/C: stronger effect = lower value; active = viability on the fitted dose curve at most 10% of control; inactive = the rest
Outline: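 Combination screen of spheroid viability in tumor-cell co-cultures with endothelial (HUVEC) and mesenchymal stem cell stroma. Each agent was tested in half-log dilutions, topping at clinical Cmax or at 10 microM without a known Cmax.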

[1] = curve of first compound, second compound 0.1 µM
[2] = curve of first compound, second compound 0.316 µM
[3] = curve of first compound, second compound 1 µM
[4] = curve of first compound, second compound 3.16 µM
[5] = second compound 0.1 µM, first compound 0.01 µM
[6] = second compound 0.1 µM, first compound 0.0316 µM
[7] = second compound 0.1 µM, first compound 0.1 µM
[8] = second compound 0.1 µM, first compound 0.316 µM
[9] = second compound 0.1 µM, first compound 1 µM
[10] = second compound 0.1 µM, first compound 3.16 µM
[11] = second compound 0.316 µM, first compound 0.01 µM
[12] = second compound 0.316 µM, first compound 0.0316 µM
[13] = second compound 0.316 µM, first compound 0.1 µM
[14] = second compound 0.316 µM, first compound 0.316 µM
[15] = second compound 0.316 µM, first compound 1 µM
[16] = second compound 0.316 µM, first compound 3.16 µM
[17] = second compound 1 µM, first compound 0.01 µM
[18] = second compound 1 µM, first compound 0.0316 µM
[19] = second compound 1 µM, first compound 0.1 µM
[20] = second compound 1 µM, first compound 0.316 µM
[21] = second compound 1 µM, first compound 1 µM
[22] = second compound 1 µM, first compound 3.16 µM
[23] = second compound 3.16 µM, first compound 0.01 µM
[24] = second compound 3.16 µM, first compound 0.0316 µM
[25] = second compound 3.16 µM, first compound 0.1 µM
[26] = second compound 3.16 µM, first compound 0.316 µM
[27] = second compound 3.16 µM, first compound 1 µM
[28] = second compound 3.16 µM, first compound 3.16 µM
[29] = curve of first compound, second compound 10 µM
[30] = second compound 0.1 µM, first compound 10 µM
[31] = second compound 0.316 µM, first compound 10 µM
[32] = second compound 1 µM, first compound 10 µM
[33] = second compound 3.16 µM, first compound 10 µM
[34] = second compound 10 µM, first compound 0.0316 µM
[35] = second compound 10 µM, first compound 0.1 µM
[36] = second compound 10 µM, first compound 0.316 µM
[37] = second compound 10 µM, first compound 1 µM
[38] = second compound 10 µM, first compound 3.16 µM
[39] = second compound 10 µM, first compound 10 µM
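Also: spheroids exposed to compounds for seven days before readout.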
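For viability, T/C in this document: 100% = DMSO vehicle control luminescence of the spheroids.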

CC(=O)OC12COC1CC(O)C1(C)C(=O)C(O)C3=C(C)C(OC(=O)C(O)C(NC(=O)OC(C)(C)C)c4ccccc4)CC(O)(C(OC(=O)c4ccccc4)C21)C3(C)C (configuration not stated) + C=CC(=O)N1CCN(c2nc(OCC3CCCN3C)nc3c2CCN(c2cccc4cccc(C)c24)C3)CC1CC#N
6.70: pIC50 [1]
6.79: pIC50 [2]
6.69: pIC50 (curve of first compound, second compound 0.0316 µM) | pIC50 [4]
6.85: pIC50 [3]
inactive: viability, T/C (second compound 0.0316 µM, first compound 0.01 µM) 102% | viability, T/C (second compound 0.0316 µM, first compound 0.0316 µM) 95.9% | viability, T/C (second compound 0.0316 µM, first compound 0.1 µM) 69.3% | viability, T/C (second compound 0.0316 µM, first compound 0.316 µM) 38.4% | viability, T/C (second compound 0.0316 µM, first compound 1 µM) 29% | viability, T/C (second compound 0.0316 µM, first compound 3.16 µM) 26.1% | viability, T/C [5] 99.1% | viability, T/C [6] 91.2% | viability, T/C [7] 61.4% | viability, T/C [8] 43% | viability, T/C [9] 27.3% | viability, T/C [10] 25.6% | viability, T/C [11] 98.1% | viability, T/C [12] 88% | viability, T/C [13] 60.8% | viability, T/C [14] 35.4% | viability, T/C [15] 26.5% | viability, T/C [16] 24.3% | viability, T/C [17] 93% | viability, T/C [18] 94.5% | viability, T/C [19] 56.2% | viability, T/C [20] 34% | viability, T/C [21] 24.4% | viability, T/C [22] 22.9% | viability, T/C [23] 94.3% | viability, T/C [24] 86.7% | viability, T/C [25] 69.1% | viability, T/C [26] 38.5% | viability, T/C [27] 24.2% | viability, T/C [28] 23.7%

COc1cc2nccc(Oc3ccc(NC(=O)C4(C(=O)Nc5ccc(F)cc5)CC4)cc3)c2cc1OC + C=CC(=O)N1CCN(c2nc(=O)n(-c3c(C)ccnc3C(C)C)c3nc(-c4c(O)cccc4F)c(F)cc23)C(C)C1
< 5.00: pIC50 [1] | pIC50 [2] | pIC50 [3] | pIC50 [4] | pIC50 [29]
inactive: viability, T/C [6] 108% | viability, T/C [7] 102% | viability, T/C [8] 99.3% | viability, T/C [9] 110% | viability, T/C [10] 104% | viability, T/C [30] 65.9% | viability, T/C [12] 104% | viability, T/C [13] 107% | viability, T/C [14] 113% | viability, T/C [15] 110% | viability, T/C [16] 99.4% | viability, T/C [31] 57.4% | viability, T/C [18] 109% | viability, T/C [19] 115% | viability, T/C [20] 113% | viability, T/C [21] 103% | viability, T/C [22] 104% | viability, T/C [32] 74.8% | viability, T/C [24] 114% | viability, T/C [25] 112% | viability, T/C [26] 111% | viability, T/C [27] 117% | viability, T/C [28] 108% | viability, T/C [33] 72.1% | viability, T/C [34] 131% | viability, T/C [35] 115% | viability, T/C [36] 111% | viability, T/C [37] 112% | viability, T/C [38] 90.8% | viability, T/C [39] 62.6%

COc1cc2nccc(Oc3ccc(NC(=O)C4(C(=O)Nc5ccc(F)cc5)CC4)cc3)c2cc1OC + CNCc1ccccc1-c1csc(C(C)Nc2nc(C)nc3cc(OC)c(OC)cc23)c1
> 7.50: pIC50 [29]
5.00: pIC50 [1]
inactive: viability, T/C [6] 102% | viability, T/C [7] 104% | viability, T/C [8] 97.2% | viability, T/C [9] 103% | viability, T/C [10] 101% | viability, T/C [30] 49.6% | viability, T/C [12] 112% | viability, T/C [13] 91.5% | viability, T/C [14] 96.3% | viability, T/C [15] 101% | viability, T/C [16] 85.5% | viability, T/C [31] 36.3% | viability, T/C [18] 107% | viability, T/C [19] 102% | viability, T/C [20] 100% | viability, T/C [21] 99.7% | viability, T/C [22] 82.7% | viability, T/C [32] 29.3% | viability, T/C [24] 82% | viability, T/C [25] 78% | viability, T/C [26] 72.4% | viability, T/C [27] 64.4% | viability, T/C [28] 32.5%
active: viability, T/C [33] 0.27% | viability, T/C [34] 0.19% | viability, T/C [35] 0.17% | viability, T/C [36] 0.16% | viability, T/C [37] 0.18% | viability, T/C [38] 0.13% | viability, T/C [39] 0.17%
5.14: pIC50 [2]
5.79: pIC50 [4]
5.19: pIC50 [3]

COc1cc2nccc(Oc3ccc(NC(=O)C4(C(=O)Nc5ccc(F)cc5)CC4)cc3)c2cc1OC
< 5.00: pIC50 (curve of compound)
inactive: viability, T/C (compound 0.0316 µM) 103% [middle of 5 runs] | viability, T/C (compound 0.1 µM) 107% [middle of 5 runs] | viability, T/C (compound 0.316 µM) 105% [middle of 5 runs] | viability, T/C (compound 1 µM) 106% [middle of 5 runs]

O=C(c1cc(Cc2n[nH]c(=O)c3ccccc23)ccc1F)N1CCN(C(=O)C2CC2)CC1 + C=CC(=O)N1CCN(c2nc(=O)n(-c3c(C)ccnc3C(C)C)c3nc(-c4c(O)cccc4F)c(F)cc23)C(C)C1
< 5.00: pIC50 [1] | pIC50 [2] | pIC50 [3] | pIC50 [4] | pIC50 [29]
inactive: viability, T/C [6] 104% | viability, T/C [7] 100% | viability, T/C [8] 101% | viability, T/C [9] 103% | viability, T/C [10] 95.6% | viability, T/C [30] 89.5% | viability, T/C [12] 116% | viability, T/C [13] 104% | viability, T/C [14] 96% | viability, T/C [15] 97% | viability, T/C [16] 101% | viability, T/C [31] 97.2% | viability, T/C [18] 111% | viability, T/C [19] 101% | viability, T/C [20] 111% | viability, T/C [21] 104% | viability, T/C [22] 106% | viability, T/C [32] 92% | viability, T/C [24] 106% | viability, T/C [25] 102% | viability, T/C [26] 105% | viability, T/C [27] 100% | viability, T/C [28] 102% | viability, T/C [33] 95.7% | viability, T/C [34] 107% | viability, T/C [35] 114% | viability, T/C [36] 105% | viability, T/C [37] 110% | viability, T/C [38] 101% | viability, T/C [39] 107%

CN(C)C/C=C/C(=O)Nc1cc2c(Nc3ccc(F)c(Cl)c3)ncnc2cc1O[C@H]1CCOC1 + CC1OCC2(CCN(c3cnc(Sc4ccnc(N)c4Cl)c(N)n3)CC2)C1N
inactive: viability, T/C (second compound 0.1 µM, first compound 0.000316 µM) 105% | viability, T/C (second compound 0.1 µM, first compound 0.001 µM) 106% | viability, T/C (second compound 0.1 µM, first compound 0.00316 µM) 92.8% | viability, T/C [5] 90.2% | viability, T/C [6] 84.5% | viability, T/C [7] 65.2% | viability, T/C (second compound 0.316 µM, first compound 0.000316 µM) 94.5% | viability, T/C (second compound 0.316 µM, first compound 0.001 µM) 84.3% | viability, T/C (second compound 0.316 µM, first compound 0.00316 µM) 82.8% | viability, T/C [11] 80.2% | viability, T/C [12] 83.4% | viability, T/C [13] 68% | viability, T/C (second compound 1 µM, first compound 0.000316 µM) 95.9% | viability, T/C (second compound 1 µM, first compound 0.001 µM) 84.2% | viability, T/C (second compound 1 µM, first compound 0.00316 µM) 88.1% | viability, T/C [17] 91.8% | viability, T/C [18] 79.8% | viability, T/C [19] 75.8% | viability, T/C (second compound 3.16 µM, first compound 0.000316 µM) 67.6% | viability, T/C (second compound 3.16 µM, first compound 0.001 µM) 64.1% | viability, T/C (second compound 3.16 µM, first compound 0.00316 µM) 62.8% | viability, T/C [23] 60.4% | viability, T/C [24] 59% | viability, T/C [25] 51.6% | viability, T/C (second compound 10 µM, first compound 0.000316 µM) 85.5% | viability, T/C (second compound 10 µM, first compound 0.001 µM) 97.7% | viability, T/C (second compound 10 µM, first compound 0.00316 µM) 66.9% | viability, T/C (second compound 10 µM, first compound 0.01 µM) 81.5% | viability, T/C [34] 51.6% | viability, T/C [35] 46.8%
< 7.00: pIC50 [1] | pIC50 [2] | pIC50 [3] | pIC50 [4]
7.20: pIC50 [29]

CC1(C)CCC(CN2CCN(c3ccc(C(=O)NS(=O)(=O)c4ccc(NCC5CCOCC5)c([N+](=O)[O-])c4)c(Oc4cnc5[nH]ccc5c4)c3)CC2)=C(c2ccc(Cl)cc2)C1
inactive: viability, T/C (compound 0.0316 µM) 103% [middle of 5 runs] | viability, T/C (compound 0.1 µM) 102% [middle of 5 runs] | viability, T/C (compound 0.316 µM) 101% [middle of 5 runs] | viability, T/C (compound 1 µM) 102% [middle of 5 runs] | viability, T/C (compound 3.16 µM) 96.3% [middle of 5 runs] | viability, T/C (compound 10 µM) 92.8% [middle of 5 runs]
< 5.00: pIC50 (curve of compound)
